The values that follow come from ChEMBL document CHEMBL1201862, “PubChem BioAssay data set” (2004).

Where “and” joins values, the source holds several entries; their conditions need not be identical. Identical values can stand only once. Calls of active or inactive are those of the source. A value given as a limit tells only on which side of the number the result lay.

Experiment [1] concerns the target NAD-dependent protein deacylase sirtuin-5, mitochondrial (Homo sapiens, UniProt Q9NXA8). Description: SIRT5 deacylase inhibitors, dose response, biochemical, fluorescence imaging, cherry-pick, set 6 (AID 720597).
Experiment [2] addresses T1, Short transient receptor potential channel 4 (Mus musculus, UniProt Q9QUQ5).
T1 sequence (Q9QUQ5 whole entry): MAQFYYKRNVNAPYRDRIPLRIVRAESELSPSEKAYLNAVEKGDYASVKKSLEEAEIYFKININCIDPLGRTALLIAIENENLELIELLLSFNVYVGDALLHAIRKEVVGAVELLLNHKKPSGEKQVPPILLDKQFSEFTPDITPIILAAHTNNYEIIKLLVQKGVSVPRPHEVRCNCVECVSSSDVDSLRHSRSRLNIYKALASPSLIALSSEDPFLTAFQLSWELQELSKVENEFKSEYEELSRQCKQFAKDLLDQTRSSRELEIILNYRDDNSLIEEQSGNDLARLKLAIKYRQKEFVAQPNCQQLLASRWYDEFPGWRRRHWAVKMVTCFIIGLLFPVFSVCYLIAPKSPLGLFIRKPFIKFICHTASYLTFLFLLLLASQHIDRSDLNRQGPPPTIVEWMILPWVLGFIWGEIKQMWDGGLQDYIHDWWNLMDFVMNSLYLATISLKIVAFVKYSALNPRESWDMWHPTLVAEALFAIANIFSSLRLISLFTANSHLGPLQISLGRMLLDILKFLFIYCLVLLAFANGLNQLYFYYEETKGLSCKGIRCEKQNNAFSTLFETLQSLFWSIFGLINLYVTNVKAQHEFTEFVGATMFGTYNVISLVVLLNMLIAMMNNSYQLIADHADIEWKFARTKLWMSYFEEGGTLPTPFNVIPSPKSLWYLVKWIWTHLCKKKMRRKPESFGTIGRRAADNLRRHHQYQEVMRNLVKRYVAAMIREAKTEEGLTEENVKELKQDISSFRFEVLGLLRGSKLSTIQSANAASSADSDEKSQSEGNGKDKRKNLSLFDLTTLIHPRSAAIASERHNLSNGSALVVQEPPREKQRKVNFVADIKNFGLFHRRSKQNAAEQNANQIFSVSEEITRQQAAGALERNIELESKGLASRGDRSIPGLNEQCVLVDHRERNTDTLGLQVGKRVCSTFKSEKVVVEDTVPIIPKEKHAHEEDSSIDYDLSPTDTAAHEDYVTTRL
In words: mouse TRPC4 channel inhibitors, dose response, cell-based, HEK293 TRPC4/mu-opioid, Fluo-4 calcium (AID 434942).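 Note: potency of inhibitors blocking the TRPC4 calcium response.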 Type of experiment: functional.

The target in experiment [3] is Voltage-gated inwardly rectifying potassium channel KCNH2 (Homo sapiens, UniProt Q12809). Description: hERG protection from proarrhythmic block, potency, dose response, cell-based, thallium flux (AID 2121). Type of experiment: ADME. (The hERG channel carries a current that helps repolarise heart muscle cells.)
Experiment [4] in a line: CTGF mRNA reduction under YAP1 overexpression, dose response, mechanism study for YAP1 pathway inhibitor project, DLD1 cells, RT-qPCR, cherry-pick (AID 1053127). Type of experiment: functional, cell-based. The following applies: DLD-1.
Experiment [5] has as its system BJ. Description: cytotoxicity toward BJ-TERT-LT-ST fibroblasts, dose response, cell-based, RAS-independent, luminescence (AID 1935).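 Note: BJ fibroblasts immortalized with TERT plus LT and ST oncogenes.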 The following applies: Homo sapiens. Type of experiment: functional.
For experiment [6], the system named is BJ. In words: cytotoxicity toward Ras-transformed BJeLR fibroblasts, dose response, cell-based, alamar blue fluorescence, cherrypicked samples (AID 2631).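 Note: confirmatory dose-response assay in RAS-dependent BJ fibroblasts engineered with TERT, LT and ST, with cytotoxicity read by fluorescence.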 Type of experiment: functional. Particulars: Homo sapiens.
Experiment [7] in a line: cytotoxicity toward DRD oncogenic fibroblasts, dose response, cell-based, non-viral oncogenic, luminescence (AID 1934). Type of experiment: functional. The following applies: Homo sapiens.
Experiment [8] has as its target Heat shock protein HSP 90-alpha (Homo sapiens, UniProt P07900). Description: Luminescence-based dose response biochemical high throughput screening assay for inhibitors of the Heat Shock Protein 90 (HSP90). [Related pubchem assays: 1831 (Summary AID.), 1846 (Confirmation screen.), 1789 (Primary screen.)].
The subject of experiment [9] is BJ. In words: cytotoxicity toward BJ-TERT fibroblasts, dose response, cell-based, RAS-independent, luminescence (AID 1933). Type of experiment: functional. Particulars: Homo sapiens.
The test system of experiment [10] is BJ. Description: cells. Type of experiment: functional, cell-based. The following applies: Homo sapiens.
Experiment [11] is described as follows: A549 cell cytotoxicity, dose response, cytotoxicity control, 24 h, CellTiter-Glo luminescence, cherry-picks (AID 1053115). Type of experiment: functional, cell-based. Particulars: A549, 24 h. For orientation: Cellular ATP, detected with luciferase, serves as a proxy for viable cell number.
The target of experiment [12] is Induced myeloid leukemia cell differentiation protein Mcl-1 (Homo sapiens, UniProt Q07820). Type of experiment: functional.
For experiment [13], the target named is Bifunctional protein GlmU (Mycobacterium tuberculosis, UniProt P9WMN3). In words: Inhibitors of Mycobacterial Glucosamine-1-phosphate acetyl transferase (GlmU). Secondary screen. Also on record: species or system Mycobacterium tuberculosis H37Rv.
Another experiment addresses ELAV-like protein 1 (Homo sapiens, UniProt Q15717). Description: Identify HuR specific inhibitors. Type of experiment: functional.
The target of experiment [14] is Melanin-concentrating hormone receptor 1 (Homo sapiens, UniProt Q99705). In words: Fluorescence-based counterscreen for antagonists of the G-protein coupled receptor 7 (GPR7): cell-based high throughput dose response assay to identify antagonists of the melanin-concentrating hormone receptor 1 (MCHR1). Type of experiment: functional.
Experiment [15] concerns the target Neuropeptides B/W receptor type 1 (Homo sapiens, UniProt P48145). In words: Fluorescence-based dose response cell-based high throughput screening assay to identify antagonists of the G-protein coupled receptor 7 (GPR7). [Related pubchem assays: 1952 (Screening assay (GPR7 antagonists).), 1880 (Summary AID.)]. Type of experiment: functional.

Voltage-gated inwardly rectifying potassium channel KCNH2, sequence (Q12809 whole entry): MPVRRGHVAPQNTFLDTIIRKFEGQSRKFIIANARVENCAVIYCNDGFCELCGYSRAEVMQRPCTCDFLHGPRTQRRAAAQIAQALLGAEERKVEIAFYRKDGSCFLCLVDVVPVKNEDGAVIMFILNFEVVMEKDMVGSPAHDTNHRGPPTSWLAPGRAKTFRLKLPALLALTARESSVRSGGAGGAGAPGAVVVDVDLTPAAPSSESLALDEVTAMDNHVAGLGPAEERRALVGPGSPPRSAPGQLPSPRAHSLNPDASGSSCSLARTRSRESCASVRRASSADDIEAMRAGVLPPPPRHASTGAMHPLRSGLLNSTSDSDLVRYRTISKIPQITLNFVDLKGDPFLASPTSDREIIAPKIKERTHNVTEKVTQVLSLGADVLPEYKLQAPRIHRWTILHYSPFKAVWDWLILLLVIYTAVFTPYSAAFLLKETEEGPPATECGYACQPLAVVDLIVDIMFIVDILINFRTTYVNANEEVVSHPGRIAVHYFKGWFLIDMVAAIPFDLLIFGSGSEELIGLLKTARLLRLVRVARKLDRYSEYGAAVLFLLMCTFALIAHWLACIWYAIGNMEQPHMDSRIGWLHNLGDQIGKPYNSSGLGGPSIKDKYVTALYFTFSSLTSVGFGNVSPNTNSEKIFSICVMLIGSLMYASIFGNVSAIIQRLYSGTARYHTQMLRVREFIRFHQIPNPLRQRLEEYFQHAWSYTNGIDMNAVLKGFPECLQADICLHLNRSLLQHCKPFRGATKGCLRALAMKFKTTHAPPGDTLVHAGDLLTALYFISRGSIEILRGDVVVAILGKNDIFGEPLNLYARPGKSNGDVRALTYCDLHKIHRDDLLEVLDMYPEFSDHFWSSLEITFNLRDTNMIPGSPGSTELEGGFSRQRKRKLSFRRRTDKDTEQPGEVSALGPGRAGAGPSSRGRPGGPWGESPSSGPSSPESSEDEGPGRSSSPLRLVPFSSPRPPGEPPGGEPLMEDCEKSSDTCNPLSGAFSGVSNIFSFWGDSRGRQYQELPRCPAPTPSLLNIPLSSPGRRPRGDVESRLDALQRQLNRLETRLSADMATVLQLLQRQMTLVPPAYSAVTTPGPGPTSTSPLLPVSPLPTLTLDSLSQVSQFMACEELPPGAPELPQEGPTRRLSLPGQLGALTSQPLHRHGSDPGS
NAD-dependent protein deacylase sirtuin-5, mitochondrial, sequence (Q9NXA8 whole entry): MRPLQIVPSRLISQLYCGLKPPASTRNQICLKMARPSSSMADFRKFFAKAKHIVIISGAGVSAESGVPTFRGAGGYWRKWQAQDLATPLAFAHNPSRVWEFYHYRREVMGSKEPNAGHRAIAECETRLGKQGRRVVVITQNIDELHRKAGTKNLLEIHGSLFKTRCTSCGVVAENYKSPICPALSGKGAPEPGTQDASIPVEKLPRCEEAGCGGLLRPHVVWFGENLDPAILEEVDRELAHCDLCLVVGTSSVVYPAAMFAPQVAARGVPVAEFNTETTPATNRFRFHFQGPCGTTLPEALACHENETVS
Induced myeloid leukemia cell differentiation protein Mcl-1, sequence (Q07820 whole entry): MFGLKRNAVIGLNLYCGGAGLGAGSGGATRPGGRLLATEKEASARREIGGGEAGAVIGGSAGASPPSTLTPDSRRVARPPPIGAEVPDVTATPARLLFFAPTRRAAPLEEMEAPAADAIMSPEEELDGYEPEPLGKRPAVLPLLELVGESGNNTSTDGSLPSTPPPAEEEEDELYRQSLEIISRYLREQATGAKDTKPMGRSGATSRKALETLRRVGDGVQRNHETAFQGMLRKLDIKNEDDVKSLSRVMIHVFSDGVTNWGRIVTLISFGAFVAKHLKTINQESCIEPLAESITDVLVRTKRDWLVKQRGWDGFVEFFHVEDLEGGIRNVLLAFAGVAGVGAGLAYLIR
Neuropeptides B/W receptor type 1, sequence (P48145 whole entry): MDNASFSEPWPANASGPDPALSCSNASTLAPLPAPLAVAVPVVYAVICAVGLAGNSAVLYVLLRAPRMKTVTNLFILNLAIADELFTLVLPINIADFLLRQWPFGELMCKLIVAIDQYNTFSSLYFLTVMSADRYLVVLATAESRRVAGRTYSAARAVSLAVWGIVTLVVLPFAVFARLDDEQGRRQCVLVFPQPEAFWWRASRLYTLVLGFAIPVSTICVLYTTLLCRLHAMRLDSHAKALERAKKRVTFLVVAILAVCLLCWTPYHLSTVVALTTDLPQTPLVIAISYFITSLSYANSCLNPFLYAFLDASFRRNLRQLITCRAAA
Bifunctional protein GlmU, sequence (P9WMN3 whole entry): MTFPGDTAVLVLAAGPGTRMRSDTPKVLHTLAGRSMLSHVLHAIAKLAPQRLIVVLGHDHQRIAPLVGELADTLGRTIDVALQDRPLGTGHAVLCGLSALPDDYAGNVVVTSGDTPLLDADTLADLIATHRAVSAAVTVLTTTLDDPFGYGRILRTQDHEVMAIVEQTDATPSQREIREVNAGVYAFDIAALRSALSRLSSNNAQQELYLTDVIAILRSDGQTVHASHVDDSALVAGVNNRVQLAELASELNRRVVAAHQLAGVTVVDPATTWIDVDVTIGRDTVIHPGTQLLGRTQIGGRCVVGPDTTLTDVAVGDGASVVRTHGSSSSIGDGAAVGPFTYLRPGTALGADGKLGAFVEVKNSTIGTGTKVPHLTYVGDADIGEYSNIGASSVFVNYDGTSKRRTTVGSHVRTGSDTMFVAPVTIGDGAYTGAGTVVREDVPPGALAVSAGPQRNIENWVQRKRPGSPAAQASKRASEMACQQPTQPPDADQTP
Melanin-concentrating hormone receptor 1, sequence (Q99705 whole entry): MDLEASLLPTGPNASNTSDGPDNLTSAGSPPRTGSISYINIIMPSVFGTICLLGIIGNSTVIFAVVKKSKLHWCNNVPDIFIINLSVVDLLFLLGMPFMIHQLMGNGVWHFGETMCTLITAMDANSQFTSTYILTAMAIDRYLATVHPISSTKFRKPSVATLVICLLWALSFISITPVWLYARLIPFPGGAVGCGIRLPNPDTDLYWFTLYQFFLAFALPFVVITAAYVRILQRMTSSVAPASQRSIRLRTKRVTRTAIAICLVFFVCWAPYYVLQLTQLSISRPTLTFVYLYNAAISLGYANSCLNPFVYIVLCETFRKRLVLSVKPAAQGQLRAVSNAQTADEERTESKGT
ELAV-like protein 1, sequence (Q15717 whole entry): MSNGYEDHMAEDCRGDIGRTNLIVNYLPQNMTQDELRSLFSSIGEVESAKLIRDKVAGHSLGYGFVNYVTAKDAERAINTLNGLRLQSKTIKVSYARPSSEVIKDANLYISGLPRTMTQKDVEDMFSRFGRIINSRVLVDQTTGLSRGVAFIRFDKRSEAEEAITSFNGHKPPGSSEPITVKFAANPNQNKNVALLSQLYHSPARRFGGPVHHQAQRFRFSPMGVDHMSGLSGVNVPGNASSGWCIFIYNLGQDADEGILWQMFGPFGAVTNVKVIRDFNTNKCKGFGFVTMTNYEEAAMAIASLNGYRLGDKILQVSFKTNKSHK

In the case of `C[C@@H]1CN([C@H](C)CO)S(=O)(=O)c2ccc(/C=C/c3ccccc3)cc2O[C@H]1CN(C)C(=O)Nc1cc(F)ccc1F`, the AC50 (usually the concentration giving half of the maximal activity seen) in [1] was > 30 µM (inactive).

Regarding `O=C(O)c1ccc(Cl)cc1Nc1nc2cc(Cl)ccc2o1`, the concentration giving a half-maximal response (EC50) – broadly, the concentration needed to bring the measured effect to its halfway point – in experiment [2] was 5.31 µM (active); in experiment [3] it was 11.3 µM (active) and 12 µM (active).

On to `CC(C)(C)[S@@+]([O-])N1Cc2cc(C(=O)NCCc3ccncc3)nc(-c3cccc(-c4cccc(C#N)c4)c3)c2[C@H]1CCO`, for which the half-maximal activity concentration (AC50) in experiment [4] was 498 nM (active).

Consider `CNC(=S)N/N=C/c1ccc(-c2ccc(C(=O)O)cc2)o1`, for which the EC50 is 17 µM (active) in the experiment on BJ [5]; > 133 µM (inactive) with BJ [6]; 5.6 µM (active) in [7]; 4.2 µM (active) in the experiment with BJ [9]; 5.08 µM (active) in the experiment on BJ [10]. Besides, the IC50 (commonly the point on the concentration scale where inhibition reaches its midpoint) in [8] is 8.05 µM (active).

Turning to `COc1ccccc1CN1CC[C@@H]2[C@@H](CO)Nc3ccc(C#Cc4ccccc4)cc3[C@@H]21`, the AC50 in experiment [11] is > 60 µM (inactive).

In the case of `O=C(/C=C/c1ccc(O)c(O)c1)O[C@H](Cc1ccc(O)c(O)c1)C(=O)O` [ROSMARINIC ACID], the IC50 in [12] is 2.03 µM (active); in experiment [13] it was 84.9 µM (active).

With `CC1=CC(C)(C)N=C(S)N1c1cccc2cc(S(=O)(=O)O)ccc12`, the IC50 on ELAV-like protein 1 is 14.7 µM (inactive).

`CCc1ccc(Cn2nnc(C(=O)Nc3ccc(OC)cc3OC)c2N)cc1`: the IC50 in experiment [14] and in [15] was > 43.8 µM (not active) each time.
